ChEMBL document CHEMBL4000220, “Optimization of spirocyclic proline tryptophan hydroxylase-1 inhibitors” (Bioorg Med Chem Lett, 2017)
Each block holds one compound with its values, some of them ahead of it.

Key:
Mus musculus [1] = assay: In vivo inhibition of TPH1 in mouse assessed as reduction in 5-HT level in intestinal mucosa at 50 mg/kg, po administered daily as single dose relative to control; assay type: functional
Rattus norvegicus [2] = assay: Half life in rat assessed as (S)-8-(2-amino-6-((R)-1-(3',4'-dimethyl-3-(3-methyl-1H-pyrazol-1-yl)biphenyl-4-yl)-2,2,2-trifluoroethoxy)pyrimidin-4-yl)-2,8-diazaspiro[4.5]decane-3-carboxylic acid level at 1 mg/kg, iv; assay type: ADME, organism-based; details: in vivo
Rattus norvegicus [3] = assay: Cmax in rat assessed as (S)-8-(2-amino-6-((R)-1-(3',4'-dimethyl-3-(3-methyl-1H-pyrazol-1-yl)biphenyl-4-yl)-2,2,2-trifluoroethoxy)pyrimidin-4-yl)-2,8-diazaspiro[4.5]decane-3-carboxylic acid level at 25 mg/kg, po; assay type: ADME, organism-based; set-up: dose 25 mg/kg, route oral; details: in vivo
Rattus norvegicus [4] = assay: AUC (0 to last) in rat assessed as (S)-8-(2-amino-6-((R)-1-(3',4'-dimethyl-3-(3-methyl-1H-pyrazol-1-yl)biphenyl-4-yl)-2,2,2-trifluoroethoxy)pyrimidin-4-yl)-2,8-diazaspiro[4.5]decane-3-carboxylic acid level at 25 mg/kg, po; assay type: ADME, organism-based; set-up: dose 25 mg/kg, time 0 - last, route oral; details: in vivo
[5] = Clearance in rat at 1 mg/kg, iv; assay type: ADME, organism-based; details: in vivo
Rattus norvegicus [6] = assay: Clearance in rat at 1 mg/kg, iv relative to hepatic blood flow; assay type: ADME, organism-based; details: in vivo
[7] = Volume of distribution at steady state in rat at 1 mg/kg, iv; assay type: ADME, organism-based; details: in vivo, read-out: Vdss
Rattus norvegicus [8] = assay: Cmax in rat assessed as (S)-8-(2-amino-6-((R)-1-(5-chlorobiphenyl-2-yl)-2,2,2-trifluoroethoxy)pyrimidin-4-yl)-2,8-diazaspiro[4.5]decane-3-carboxylic acid level at 25 mg/kg, po; assay type: ADME, organism-based; set-up: dose 25 mg/kg, route oral; details: in vivo
Rattus norvegicus [9] = assay: AUC (0 to last) in rat assessed as (S)-8-(2-amino-6-((R)-1-(5-chlorobiphenyl-2-yl)-2,2,2-trifluoroethoxy)pyrimidin-4-yl)-2,8-diazaspiro[4.5]decane-3-carboxylic acid level at 25 mg/kg, po; assay type: ADME, organism-based; set-up: dose 25 mg/kg, route oral, time 0 - last; details: in vivo
[10] = Half life in rat at 1 mg/kg, iv; assay type: ADME, organism-based; details: in vivo
Canis familiaris [11] = assay: Clearance in beagle dog at 1 mg/kg, iv relative to hepatic blood flow; assay type: ADME, organism-based, Canis lupus familiaris; details: in vivo
Canis familiaris [12] = assay: Half life in beagle dog at 1 mg/kg, iv; assay type: ADME, organism-based, Canis lupus familiaris; details: in vivo
Canis familiaris [13] = assay: Volume of distribution at steady state in beagle dog at 1 mg/kg, iv; assay type: ADME, organism-based, Canis lupus familiaris; details: in vivo
Canis familiaris [14] = assay: Half life in beagle dog assessed as (S)-8-(2-amino-6-((R)-1-(5-chlorobiphenyl-2-yl)-2,2,2-trifluoroethoxy)pyrimidin-4-yl)-2,8-diazaspiro[4.5]decane-3-carboxylic acid level at 1 mg/kg, iv; assay type: ADME, organism-based, Canis lupus familiaris; details: in vivo
Canis familiaris [15] = assay: Cmax in beagle dog assessed as (S)-8-(2-amino-6-((R)-1-(5-chlorobiphenyl-2-yl)-2,2,2-trifluoroethoxy)pyrimidin-4-yl)-2,8-diazaspiro[4.5]decane-3-carboxylic acid level at 25 mg/kg, po; assay type: ADME, organism-based, Canis lupus familiaris; set-up: dose 25 mg/kg, route oral; details: in vivo
Canis familiaris [16] = assay: AUC (0 to last) in beagle dog assessed as (S)-8-(2-amino-6-((R)-1-(5-chlorobiphenyl-2-yl)-2,2,2-trifluoroethoxy)pyrimidin-4-yl)-2,8-diazaspiro[4.5]decane-3-carboxylic acid level at 25 mg/kg, po; assay type: ADME, organism-based, Canis lupus familiaris; set-up: dose 25 mg/kg, time 0 - last, route oral; details: in vivo
Mus musculus [17] = assay: In vivo inhibition of TPH1 in mouse assessed as reduction in 5-HT level in intestinal mucosa at 10 mg/kg, po administered daily as single dose relative to control; assay type: functional
Mus musculus [18] = assay: Prodrug activation in mouse assessed as (S)-8-(2-amino-6-((R)-1-(5-chlorobiphenyl-2-yl)-2,2,2-trifluoroethoxy)pyrimidin-4-yl)-2,8-diazaspiro[4.5]decane-3-carboxylic acid formation at 10 to 50 mg/kg, po administered as single dose; assay type: organism-based; details: in vivo
Mus musculus [19] = assay: Prodrug activation in mouse assessed as (S)-8-(2-amino-6-((R)-1-(5-chloro-3'-fluorobiphenyl-2-yl)-2,2,2-trifluoroethoxy)pyrimidin-4-yl)-2,8-diazaspiro[4.5]decane-3-carboxylic acid formation at 10 to 50 mg/kg, po administered as single dose; assay type: organism-based; details: in vivo
Mus musculus [20] = assay: Prodrug activation in mouse assessed as (S)-8-(2-amino-6-((R)-1-(5-chloro-3'-(methylsulfonyl)biphenyl-2-yl)-2,2,2-trifluoroethoxy)pyrimidin-4-yl)-2,8-diazaspiro[4.5]decane-3-carboxylic acid formation at 10 to 50 mg/kg, po administered as single dose; assay type: organism-based; details: in vivo
Mus musculus [21] = assay: Drug level in mouse treated with (S)-ethyl 8-(2-amino-6-((R)-1-(5-chloro-3'-methoxybiphenyl-2-yl)-2,2,2-trifluoroethoxy)pyrimidin-4-yl)-2,8-diazaspiro[4.5]decane-3-carboxylate at 10 to 50 mg/kg, po administered as single dose; assay type: ADME, organism-based; details: in vivo
[22] = target: T1, Tryptophan 5-hydroxylase 1 (Homo sapiens, UniProt P17752)
T1 sequence (P17752 whole entry): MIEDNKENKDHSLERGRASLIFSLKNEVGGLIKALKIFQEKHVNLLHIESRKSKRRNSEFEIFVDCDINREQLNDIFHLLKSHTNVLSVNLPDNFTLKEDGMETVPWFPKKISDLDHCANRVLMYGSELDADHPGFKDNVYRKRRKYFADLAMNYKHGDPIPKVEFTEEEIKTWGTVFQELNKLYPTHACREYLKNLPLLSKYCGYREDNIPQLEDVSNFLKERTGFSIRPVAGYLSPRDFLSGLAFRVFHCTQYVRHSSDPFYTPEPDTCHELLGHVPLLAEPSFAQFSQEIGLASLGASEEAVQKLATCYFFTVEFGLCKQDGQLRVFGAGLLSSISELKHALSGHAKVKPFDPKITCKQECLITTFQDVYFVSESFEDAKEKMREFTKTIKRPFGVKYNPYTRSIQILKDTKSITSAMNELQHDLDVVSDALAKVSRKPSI
Description: Inhibition of TPH1 (unknown origin)

Mus musculus [23] = assay: Prodrug activation in mouse assessed as (S)-8-(2-amino-6-((R)-1-(5-chloro-3'-sulfamoylbiphenyl-2-yl)-2,2,2-trifluoroethoxy)pyrimidin-4-yl)-2,8-diazaspiro[4.5]decane-3-carboxylic acid formation at 10 to 50 mg/kg, po administered as single dose; assay type: organism-based; details: in vivo
Mus musculus [24] = assay: Drug level in mouse treated with (S)-ethyl 8-(2-amino-6-((R)-1-(5-chloro-3'-(methylsulfonyl)biphenyl-2-yl)-2,2,2-trifluoroethoxy)pyrimidin-4-yl)-2,8-diazaspiro[4.5]decane-3-carboxylate at 10 to 50 mg/kg, po administered as single dose; assay type: ADME, organism-based; details: in vivo

SMILES: CCOC(=O)[C@@H]1CC2(CCN(c3cc(O[C@H](c4ccc(-c5ccc(C)c(C)c5)cc4-n4ccc(C)n4)C(F)(F)F)nc(N)n3)CC2)CN1
- inhibition in vivo at 50 mg/kg (Mus musculus [1]): 70%
- t1/2 (Rattus norvegicus [2]): 3.6 h
- Cmax (Rattus norvegicus [3]): 240 ng/mL
- AUClast (Rattus norvegicus [4]): 1634 ng·h/mL

SMILES: CCOC(=O)[C@@H]1CC2(CCN(c3cc(O[C@H](c4ccc(Cl)cc4-c4ccccc4)C(F)(F)F)nc(N)n3)CC2)CN1 [RODATRISTAT ETHYL]
- inhibition in vivo at 50 mg/kg (Mus musculus [1]): 71%
- clearance [5]: 106 mL/min/kg
- CL (Rattus norvegicus [6]): > 100%
- Vd [7]: 12.7 L/kg
- Cmax (Rattus norvegicus [8]): 722 ng/mL
- AUClast (Rattus norvegicus [9]): 5374 ng·h/mL
- half-life [10]: 3.18 h
- CL (Canis familiaris [11]): 46%
- t1/2 (Canis familiaris [12]): 5.05 h
- Vdss (Canis familiaris [13]): 2.34 L/kg
- t1/2 (Canis familiaris [14]): 7.59 h
- Cmax (Canis familiaris [15]): 2797 ng/mL
- AUClast (Canis familiaris [16]): 32398 ng·h/mL
- inhibition in vivo at 10 mg/kg (Mus musculus [17]): 55%
- Drug metabolism (Mus musculus [18]): Metabolite_Detected

SMILES: CCOC(=O)[C@@H]1CC2(CCN(c3cc(O[C@H](c4ccc(Cl)cc4-c4cccc(F)c4)C(F)(F)F)nc(N)n3)CC2)CN1
- inhibition in vivo at 50 mg/kg (Mus musculus [1]): 61%
- inhibition in vivo at 10 mg/kg (Mus musculus [17]): 38%
- Drug metabolism (Mus musculus [19]): Metabolite_Detected

SMILES: CCOC(=O)[C@@H]1CC2(CCN(c3cc(O[C@H](c4ccc(Cl)cc4-c4cccc(S(N)(=O)=O)c4)C(F)(F)F)nc(N)n3)CC2)CN1
- inhibition in vivo at 50 mg/kg (Mus musculus [1]): 42%
- inhibition in vivo at 10 mg/kg (Mus musculus [17]): 15%
- Drug metabolism (Mus musculus [23]): Metabolite_Detected

SMILES: CS(=O)(=O)c1cccc(-c2cc(Cl)ccc2[C@@H](Oc2cc(N3CCC4(CC3)CN[C@H](C(=O)O)C4)nc(N)n2)C(F)(F)F)c1
- Drug metabolism (Mus musculus [24]): Metabolite_Detected
- IC50 [22]: 14 nM

Continued, in another order:

- Drug metabolism (Mus musculus [20]): Metabolite_Detected
SMILES: CCOC(=O)[C@@H]1CC2(CCN(c3cc(O[C@H](c4ccc(Cl)cc4-c4cccc(S(C)(=O)=O)c4)C(F)(F)F)nc(N)n3)CC2)CN1
- inhibition in vivo at 50 mg/kg (Mus musculus [1]): 38%

- Drug metabolism (Mus musculus [21]): Metabolite_Detected
- IC50 [22]: 19 nM
SMILES: COc1cccc(-c2cc(Cl)ccc2[C@@H](Oc2cc(N3CCC4(CC3)CN[C@H](C(=O)O)C4)nc(N)n2)C(F)(F)F)c1
